Entries after “also recorded” stand apart in the source; their conditions may differ.
Columns and labels:
[1] = tested on: MOG-induced experimental autoimmune encephalomyelitis (EAE); experiment: Second MOG EAE protocol, clinical readouts; type: in vivo, C57BL/6 mice; conditions: second study; MGBG 30 mpk BID, fingolimod 1 mpk QD
Description: An experimental murine model of multiple sclerosis employing a myelin oligodendrocyte glycoprotein (MOG) peptide to induce experimental autoimmune encephalomyelitis (EAE) was employed to determine the efficacy of MGBG in preventing and treating that disease. Because of its many similarities to MS, EAE is commonly used to study pathogenesis of autoimmunity, CNS inflammation, demyelination, cell trafficking, and tolerance induction. EAE is characterized by paralysis (in some models the paralysis is remitting-relapsing), CNS inflammation and demyelination. EAE is mediated primarily by dendritic cells, myelin-specific T cells (e.g. Th1 and Th17), and M1 macrophages. B cells may also play a role in some models of EAE. Body weight also tracks disease progression. EAE is induced in C57BL/6 mice by immunization with MOG35-55 or MOG1-125 in CFA emulsion followed by administration of pertussis toxin (PTX) in PBS. The emulsion provides antigen which initiates expansion and differentiation of MOG-specific autoimmune T cells. PTX enhances EAE development by providing additional adjuvant and facilitating entrance of autoimmune T cells into the CNS. […]
Clinically, EAE progression is scored on a scale of 0 to 5, wherein each score represents the following clinical observations: […]

[2] = tested on: carrageenan-induced paw edema and hyperalgesia; experiment: Carrageenan paw test for edema and hyperalgesia; type: in vivo, Swiss Webster mice
Description: Injection of carrageenan subcutaneously into the hind foot (paw) of a rat or mouse induces robust inflammation and pain. The inflammatory response begins 1-2 hrs post-carrageenan injection and persists for at least five hours following inoculation. In addition, the animal's inflamed hind paw is sensitive to noxious (hyperalgesia) or innocuous (allodynia) stimuli, compared to the contralateral hind paw. Compounds can be evaluated in this model for anti-hyperalgesia and anti-inflammatory activity. […] It is possible that some compounds will affect the inflamed paw and not affect the responses of the contralateral paw.
Embodiments of the carrageenan foot edema test are performed with materials, reagents and procedures essentially as described by Winter, et al., (Proc. Soc. Exp. Biol. Med., 111, 544 (1962)). Prophylactic and therapeutic embodiments have been developed, and are known in the art. The animals are evaluated for their responsiveness to noxious (paw pinch, plantar test) or innocuous (cold plate, von Frey filaments) stimuli. In the following protocol, mice were used.
Healthy young male Swiss Webster mice in which weight variation of the mice will not exceed ±20% of the mean were used for the study. Animals were divided into four groups of forty, and each group was dosed by oral gavage with either MGBG (BID, 12 hours apart at 30 mg/kg in 5 mL/kg normal saline), dexamethasone as positive control (QD, 1 mg/kg in 5 mL/kg 0.5% methylcellulose), or saline vehicle (BID, 5 mL/kg). […]
Immediately before sub-plantar administration of carrageenan and after 2, 3, 5 and 24 hours post carrageenan, mouse paw volume was measured using the plethysmometer (Ugo Basile). The assessment of edema was expressed as the mean increase in paw volume relative to control.
Prior to sub-plantar administration of carrageenan and after 0.5, 2, 3, 5, and 24 hours post-carrageenan, the latency of withdrawal response was determined by placing mice on a hot plate analgesia meter with surface temperature maintained at 51° C. […] Paw withdrawal latency is calculated as Δt=right paw withdrawal—left paw withdrawal. […]

## CC(/C=N/NC(=N)N)=N\NC(=N)N [MGBG, 1,1′ [methylethanediylidene]dinitrilodiguanidine]
[1]
  EAE disease development / severity: suppressed EAE comparably to 1 mpk fingolimod; also recorded: substantially reduced disease compared to that of the vehicle group; also recorded: efficacious at postponing disease onset and reducing EAE severity
[2]; mice, 3 mg/kg PO BID and 10 mg/kg PO BID
  efficacy at lower doses: observed efficacy
[2]; mice, MGBG PO BID (30 mg/kg; alternative 3, 10, 30 mg/kg)
  edema and hyperalgesia: efficacious in reducing edema and hyperalgesia
[2]; murine carrageenan-induced paw edema and hyperalgesia models
  top efficacious dose: 30 mg/kg PO BID

From patent US10085955B2, “Methods and compositions for treatment of demyelinating diseases” (Pathologica LLC, priority 2013, dated 2018)
